Among the data in ChEMBL document CHEMBL3392959, “Iminosugars as a new class of cholinesterase inhibitors” (Bioorg Med Chem Lett, 2015) are inhibition and IC50 values, retold here.

The inhibition is the drop in the measured response relative to a control, in per cent. One may read the IC50 as the point on the concentration scale where inhibition reaches its midpoint. Read a low IC50 as greater potency in that assay.

The target of test [1] is Acetylcholinesterase (Electrophorus electricus) (UniProt O42275). As to the kind of experiment: Inhibition of electric eel AchE using acetylthiocholine iodide as substrate at 250 uM by Ellman method. For orientation: DTNB colorimetry detects thiols as they appear.
Sequence of Acetylcholinesterase (Electrophorus electricus) (O42275 24-633 limits assumed): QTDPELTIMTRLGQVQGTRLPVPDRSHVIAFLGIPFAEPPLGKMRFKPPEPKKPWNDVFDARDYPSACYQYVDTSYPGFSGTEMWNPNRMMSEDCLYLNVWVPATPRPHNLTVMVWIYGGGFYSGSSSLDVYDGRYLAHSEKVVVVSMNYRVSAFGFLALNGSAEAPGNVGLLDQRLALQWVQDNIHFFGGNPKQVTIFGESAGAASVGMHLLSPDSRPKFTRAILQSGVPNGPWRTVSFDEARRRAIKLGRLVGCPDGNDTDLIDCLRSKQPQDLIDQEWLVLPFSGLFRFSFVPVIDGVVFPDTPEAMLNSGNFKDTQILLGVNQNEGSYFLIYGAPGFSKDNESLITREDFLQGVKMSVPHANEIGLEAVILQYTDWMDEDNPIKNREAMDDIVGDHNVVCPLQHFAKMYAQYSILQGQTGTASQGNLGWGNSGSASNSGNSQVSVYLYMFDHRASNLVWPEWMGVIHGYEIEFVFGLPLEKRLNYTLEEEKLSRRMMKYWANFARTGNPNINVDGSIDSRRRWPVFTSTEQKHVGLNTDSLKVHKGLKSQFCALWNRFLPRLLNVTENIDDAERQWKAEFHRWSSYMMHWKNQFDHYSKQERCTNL
The target of test [2] is T1, Acetylcholinesterase (Homo sapiens, UniProt P22303). Briefly: Inhibition of human recombinant AchE using acetylthiocholine iodide as substrate at 250 uM by Ellman method.
T1 sequence (P22303 whole entry): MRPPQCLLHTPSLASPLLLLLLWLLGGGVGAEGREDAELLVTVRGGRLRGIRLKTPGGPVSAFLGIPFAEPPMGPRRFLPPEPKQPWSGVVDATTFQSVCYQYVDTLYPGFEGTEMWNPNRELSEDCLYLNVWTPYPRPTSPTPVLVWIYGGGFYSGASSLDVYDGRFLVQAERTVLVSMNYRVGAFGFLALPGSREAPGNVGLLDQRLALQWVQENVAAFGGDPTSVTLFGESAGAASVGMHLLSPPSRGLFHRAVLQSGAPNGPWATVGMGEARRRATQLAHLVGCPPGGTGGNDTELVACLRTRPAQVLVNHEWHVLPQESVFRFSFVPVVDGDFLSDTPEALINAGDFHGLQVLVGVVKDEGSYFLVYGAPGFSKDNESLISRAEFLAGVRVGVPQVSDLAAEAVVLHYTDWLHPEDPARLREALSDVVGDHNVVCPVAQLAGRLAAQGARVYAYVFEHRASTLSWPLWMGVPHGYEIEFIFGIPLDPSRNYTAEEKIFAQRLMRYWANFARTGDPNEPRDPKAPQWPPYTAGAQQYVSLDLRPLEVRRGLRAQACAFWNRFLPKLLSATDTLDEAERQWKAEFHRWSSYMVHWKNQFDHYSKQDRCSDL
The target in test [3] is T2, Cholinesterase (Homo sapiens, UniProt P06276). As to the kind of experiment: Inhibition of human recombinant serum BuchE using butyrylthiocholine iodide as substrate at 250 uM by Ellman method.
T2 sequence (P06276 whole entry): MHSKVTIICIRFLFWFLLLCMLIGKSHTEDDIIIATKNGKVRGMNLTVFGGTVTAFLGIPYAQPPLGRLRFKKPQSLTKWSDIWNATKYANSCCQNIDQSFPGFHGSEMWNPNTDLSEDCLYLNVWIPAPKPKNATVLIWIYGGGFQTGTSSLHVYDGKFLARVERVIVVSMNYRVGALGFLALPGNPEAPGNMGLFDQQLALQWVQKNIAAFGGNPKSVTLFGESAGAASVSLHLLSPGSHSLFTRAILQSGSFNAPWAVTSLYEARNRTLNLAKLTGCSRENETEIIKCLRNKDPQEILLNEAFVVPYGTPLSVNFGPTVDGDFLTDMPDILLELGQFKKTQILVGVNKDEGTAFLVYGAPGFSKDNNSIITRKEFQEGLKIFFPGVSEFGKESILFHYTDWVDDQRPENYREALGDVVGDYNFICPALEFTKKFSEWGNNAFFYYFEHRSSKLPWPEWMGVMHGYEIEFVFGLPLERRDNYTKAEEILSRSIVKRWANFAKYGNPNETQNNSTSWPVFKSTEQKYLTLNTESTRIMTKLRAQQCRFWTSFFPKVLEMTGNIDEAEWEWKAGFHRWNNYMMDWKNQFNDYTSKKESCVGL
Test [4] addresses T2, Cholinesterase.
Description: Inhibition of human recombinant serum BuchE using butyrylthiocholine iodide as substrate by Ellman method
The target of test [5] is Acetylcholinesterase (Electrophorus electricus, UniProt O42275). As to the kind of experiment: Inhibition of electric eel AchE using acetylthiocholine iodide as substrate by Ellman method.
Sequence of Acetylcholinesterase (Electrophorus electricus, UniProt O42275) (O42275 whole entry): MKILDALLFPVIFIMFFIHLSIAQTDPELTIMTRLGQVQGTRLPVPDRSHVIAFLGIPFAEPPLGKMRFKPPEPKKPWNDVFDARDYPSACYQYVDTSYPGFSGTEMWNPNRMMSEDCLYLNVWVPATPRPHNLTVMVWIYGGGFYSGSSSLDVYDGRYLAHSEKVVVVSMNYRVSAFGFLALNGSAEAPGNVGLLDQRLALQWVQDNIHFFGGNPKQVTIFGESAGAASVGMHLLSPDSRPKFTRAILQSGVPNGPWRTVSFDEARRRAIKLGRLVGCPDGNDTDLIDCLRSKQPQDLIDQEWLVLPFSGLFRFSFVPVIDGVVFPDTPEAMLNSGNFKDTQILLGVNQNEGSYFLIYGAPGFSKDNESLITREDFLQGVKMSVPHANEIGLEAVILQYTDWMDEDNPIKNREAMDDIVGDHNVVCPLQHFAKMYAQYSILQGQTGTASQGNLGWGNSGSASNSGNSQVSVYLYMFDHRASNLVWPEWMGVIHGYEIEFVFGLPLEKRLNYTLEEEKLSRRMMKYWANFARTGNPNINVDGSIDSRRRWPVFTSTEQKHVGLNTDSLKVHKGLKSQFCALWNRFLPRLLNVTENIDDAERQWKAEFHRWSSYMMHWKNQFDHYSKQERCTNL
Test [6] concerns the target T1, Acetylcholinesterase.
Description: Inhibition of human recombinant AchE using acetylthiocholine iodide as substrate by Ellman method

The structures appear in SMILES notation. Active and inactive are the calls of the source. The calls are words filed in the database; no cut-off is given here.

Turning to `C#CC[C@H]1NC[C@@H](O)[C@H](O)[C@H]1OCc1ccccc1`, the inhibition entry (in test [1]; at Acetylcholinesterase [2]; on Cholinesterase [3]) was “inactive” each time.

In the case of `C=CC[C@@H]1[C@H](O)[C@@H](O)[C@H](O)CN1CCCCCCCC`, the inhibition (in test [1]; on Acetylcholinesterase [2]) was less than 50% each time. This molecule also showed an IC50 against Cholinesterase [4] of 161 µM.

In the case of `CCCCCCCCN1C[C@@H](O)[C@H](O)[C@@H](O)[C@H]1CCC`, the inhibition result (in test [1]; on Acetylcholinesterase [2]; on Cholinesterase [3]) was “inactive” each time.

With `c1ccc(COC[C@H]2NC[C@H](OCc3ccccc3)[C@@H](OCc3ccccc3)[C@@H]2OCc2ccccc2)cc1`, the values for the concentration for half-maximal inhibition (IC50) against Acetylcholinesterase [5], on Acetylcholinesterase [6] and at Cholinesterase [4] were 3 µM, 60 µM and 2 µM, respectively.

As to `CCCCCC[C@H]1NC[C@@H](O)[C@H](O)[C@H]1O`, the inhibition entry (in test [1]; at Acetylcholinesterase [2]; on Cholinesterase [3]) was “inactive” throughout.

In the case of `O[C@@H]1[C@@H](O)[C@@H](Cc2cn(CCC(c3ccccc3)c3ccccc3)nn2)NC[C@H]1O`, the inhibition (in test [1]; at Acetylcholinesterase [2]) was less than 50% in each case. The IC50 on Cholinesterase [4] was found to be 15 µM.

For the molecule `O[C@@H]1[C@@H](O)[C@@H](Cc2cn(Cc3ccccc3)nn2)NC[C@H]1O`, the inhibition result (in test [1]; at Acetylcholinesterase [2]; on Cholinesterase [3]) was “inactive” throughout.

Take `CCCCN1C[C@@H](O)[C@H](O)[C@@H](O)[C@H]1CCC`: the inhibition result (in test [1]; on Acetylcholinesterase [2]; on Cholinesterase [3]) was “inactive” throughout.

On to `O[C@@H]1[C@@H](OCc2ccccc2)[C@@H](Cc2cn(Cc3ccccc3)nn2)NC[C@H]1O`, for which the inhibition (in test [1]; at Acetylcholinesterase [2]) was less than 50% each time. This molecule yielded an IC50 against Cholinesterase [4] of 7 µM.

Consider `C=CC[C@@H]1[C@H](O)[C@@H](OCc2ccccc2)[C@H](O)CN1CCCCCCCC`, for which the IC50 came out at 63 µM on Acetylcholinesterase [5], 22 µM against Acetylcholinesterase [6] and 3 µM on Cholinesterase [4].

As to `CCCCCCCCO[C@H]1[C@H](O)[C@@H](O)CN(CCCCCCCC)[C@@H]1CO`, the inhibition result (in test [1]; at Acetylcholinesterase [2]; at Cholinesterase [3]) was “inactive” each time.

Turning to `O[C@@H]1[C@@H](O)[C@@H](Cc2cn(Cc3cc(OCc4ccccc4)cc(OCc4ccccc4)c3)nn2)NC[C@H]1O`, the inhibition (in test [1]; on Acetylcholinesterase [2]) was less than 50% throughout. The same molecule returned an IC50 on Cholinesterase [4] of 1.2 µM.

Turning to `CCCCCCCCCCn1cc(C[C@H]2NC[C@@H](O)[C@H](O)[C@H]2O)nn1`, the inhibition entry (in test [1]; at Acetylcholinesterase [2]; on Cholinesterase [3]) was “inactive” in each case.

Regarding `CCC[C@@H]1NC[C@@H](O)[C@H](O)[C@H]1O`, the inhibition (in test [1]; at Acetylcholinesterase [2]) was less than 50% in each case. Moreover, the IC50 on Cholinesterase [4] came to 210 µM.

On to `CCCc1cn(CCCCCCN2C[C@H](O)[C@@H](O)[C@H](O)[C@H]2CO)nn1`, for which the inhibition entry (in test [1]; at Acetylcholinesterase [2]; on Cholinesterase [3]) was “inactive” in each case.

For the molecule `CCCCCCCCO[C@H]1CN(CCCCCCCC)[C@H](CO)[C@H](O)[C@@H]1O`, the inhibition result (in test [1]; on Acetylcholinesterase [2]; on Cholinesterase [3]) was “inactive” in each case.

For the molecule `CCCCCCO[C@H]1CNC[C@@H](O)[C@@H]1O`, the inhibition entry (in test [1]; at Acetylcholinesterase [2]; at Cholinesterase [3]) was “inactive” each time.

For the molecule `C[Si](C)(C)CCCn1cc(C[C@H]2NC[C@@H](O)[C@H](O)[C@H]2O)nn1`, the inhibition entry (in test [1]; on Acetylcholinesterase [2]; at Cholinesterase [3]) was “inactive” throughout.

In the case of `O=C1N[C@H](COCc2ccccc2)[C@@H](OCc2ccccc2)[C@H](OCc2ccccc2)[C@H]1OCc1ccccc1`, the figures for the half-inhibitory concentration (IC50) at Acetylcholinesterase [5], against Acetylcholinesterase [6] and against Cholinesterase [4] were 2 µM, 46 µM and 4 µM, respectively.

As to `C=CC[C@H]1NC[C@@H](O)[C@H](OCc2ccccc2)[C@H]1O`, the inhibition (in test [1]; at Acetylcholinesterase [2]) was less than 50% throughout. Further, the midpoint of inhibition against Cholinesterase [4], the IC50, lay at 61 µM.

Take `C=CC[C@H]1NC[C@@H](O)[C@H](O)[C@H]1O`: the inhibition result (in test [1]; on Acetylcholinesterase [2]; at Cholinesterase [3]) was “inactive” each time.

On to `CCCCCC[C@H]1N[C@@H](CO)[C@@H](O)[C@H](O)[C@H]1O`, for which the inhibition result (in test [1]; at Acetylcholinesterase [2]; at Cholinesterase [3]) was “inactive” throughout.

For the molecule `CCCCCCCCC[C@H]1NC[C@@H](O)[C@H](O)[C@H]1O`, the inhibition result (in test [1]; at Acetylcholinesterase [2]; on Cholinesterase [3]) was “inactive” in each case.
